Assay results taken from article PMC5607274, “An iterative compound screening contest method for identifying target protein inhibitors using the tyrosine-protein kinase Yes” (Scientific Reports, 2017).

Target: T1, human recombinant Yes [a.a. 2–543 (end)] (Homo sapiens, UniProt P07947)
T1 construct: human recombinant Yes [a.a; 2–543 (end)]; purchased BPS Bioscience 40488
Test: ADP-Glo kinase assay, inhibition rates of Yes phosphorylation activity (first and second screening)
Type: biochemical
Details: first screening; mean of n = 4 wells; 10 μmol L−1 compound
Procedure, shortened: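 Hits from a first pass were rescreened after re-dissolution from fresh powder. The first pass reported the mean inhibition rate of quadruplicate wells per compound. Activity was that of recombinant human Yes [a.a. 2–543] kinase, read out with the ADP-Glo ADP-detection method.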

T1 sequence (P07947 2-543): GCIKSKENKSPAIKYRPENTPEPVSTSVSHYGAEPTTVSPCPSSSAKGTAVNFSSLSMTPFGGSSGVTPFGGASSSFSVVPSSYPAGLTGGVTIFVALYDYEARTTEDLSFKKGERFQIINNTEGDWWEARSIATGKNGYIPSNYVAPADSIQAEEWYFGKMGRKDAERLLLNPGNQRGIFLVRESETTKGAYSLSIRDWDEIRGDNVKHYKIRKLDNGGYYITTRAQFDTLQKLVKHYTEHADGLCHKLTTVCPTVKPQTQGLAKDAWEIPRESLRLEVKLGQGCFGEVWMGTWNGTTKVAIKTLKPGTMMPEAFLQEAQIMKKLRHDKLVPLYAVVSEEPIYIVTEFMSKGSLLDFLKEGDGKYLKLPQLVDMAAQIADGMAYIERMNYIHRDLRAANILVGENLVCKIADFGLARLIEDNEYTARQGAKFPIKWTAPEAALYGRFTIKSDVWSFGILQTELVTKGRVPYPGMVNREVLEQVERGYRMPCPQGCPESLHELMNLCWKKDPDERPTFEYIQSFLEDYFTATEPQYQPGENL

Row | SMILES | First screening IR (inhibition rate) [%]
1 | CN(c1ccc(OC(=O)C23CC4CC(CC(Cl)(C4)C2)C3)cc1)S(=O)(=O)c1ccccc1F [Compound Z29631119] | 5
2 | O=C(/C=C/c1cn(-c2ccccc2)nc1-c1cccnc1)N1CC=C(c2ccccc2)CC1 [Compound Z29699890] | 10
3 | Cc1cc(NC(=O)C(C)SCC(=O)Nc2cccc3ncccc23)no1 (stereo not drawn) [Compound Z29903633] | -3
4 | CCOC(=O)c1sc(-c2cccc([N+](=O)[O-])c2)cc1NC(=O)CCc1ccccc1 [Compound Z29956667] | -1
5 | O=C(NCCCn1ccnc1)C1CCN(C(=O)c2ccc(F)cc2)CC1 [Compound Z30216742] | 41
6 | CCCOc1c(Br)cc(C(=O)Nc2cccc(S(=O)(=O)N(CC)CC)c2)cc1OC [Compound Z30220173] | 20
7 | O=C(CCCSc1nc2ccccc2[nH]1)Nc1ccc(-c2nc3ccccc3[nH]2)cc1 [Compound Z30270226] | 17
8 | O=C(NCCSc1ccc(Br)cc1)c1ccc2nc[nH]c2c1 [Compound Z30463043] | 7
9 | CC(=O)c1ccc(-c2ccc(C(=O)Nc3cc(F)ccc3C)o2)cc1 [Compound Z30903878] | -3
10 | Cc1sc2nc(CN3CCOCC3)nc(Oc3ccc(NC(=O)c4ccc(C(C)(C)C)cc4)cc3)c2c1C [Compound Z31089732] | -13
11 | CN(C)c1ccc(C(CNc2ncccc2C#N)c2c[nH]c3ccccc23)cc1 (stereo not drawn) [Compound Z31123519] | 0
12 | Cc1sc2nc(CSc3ccccc3)nc(N3CCCC3C(N)=O)c2c1C (stereo not drawn) [Compound Z31132453] | 9
13 | CCN(CC)S(=O)(=O)c1ccc(N2CCN(S(=O)(=O)c3ccccc3C#N)CC2)nc1 [Compound Z31169752] | 6
14 | Cc1sc2ncnc(Nc3ccc4c(c3)OCO4)c2c1C [Compound Z31191207] | 14
15 | Cc1sc2nc(-c3cccnc3)nc(N3CCOCC3)c2c1-c1ccccc1 [Compound Z31211547] | 13
16 | CCN(CC)S(=O)(=O)c1ccc(NC(=O)CNC(=O)C23CC4CC(CC(C4)C2)C3)cc1 [Compound Z31827545] | 8
17 | O=C(Cc1cccc(F)c1)NNC(=O)Cn1c(COc2ccc(Cl)cc2)nc2ccccc21 [Compound Z31930719] | -2
18 | O=C(CCC(=O)N1CCC(c2ccccc2)=N1)NCc1cccc(Cl)c1 [Compound Z32361141] | 30
19 | O=C(CCc1c[nH]c2ccccc12)Nc1ccc(F)c([N+](=O)[O-])c1 [Compound Z32407809] | 4
20 | Cc1cc(C(=O)CCC(=O)NCCc2c[nH]c3ccccc23)c(C)s1 [Compound Z32439393] | 21
21 | O=C(Nc1ccc(N2CCCCC2)c(S(=O)(=O)Nc2ccc(Cl)cc2)c1)c1ccc(S(=O)(=O)NCc2ccco2)cc1 [Compound Z32729001] | -5
22 | Cc1cc(F)ccc1S(=O)(=O)Nc1ccc(C(=O)Nc2cccc(CO)c2)cc1 [Compound Z32804094] | 11
23 | COc1ccc(OC)c(-n2c(-c3ccc(C)cc3)nn(CN3CCN(c4cccc(Cl)c4)CC3)c2=S)c1 [Compound Z44116384] | 31
24 | CCCCOc1ccc(/C=C2/C(=O)Nc3ccc(Cl)cc32)cc1 [Compound Z44304381] | 6
25 | CCCOc1cc(/C=C2/C(=O)Nc3ccc(Cl)cc32)ccc1OC [Compound Z44304730] | 9
26 | Cc1nc(/C=C2/C(=O)Nc3ccc(Cl)cc32)cs1 [Compound Z44304809] | 13
27 | COc1cc(/C=C(\C#N)C(=O)NC2CCCCC2)ccc1OCC(=O)Nc1ccc(Br)cc1 [Compound Z44319326] | -16
28 | CC(Nc1ccc2c(c1)OCCO2)C(=O)Nc1ccc(F)c(F)c1F (stereo not drawn) [Compound Z44489053] | 4
29 | Cc1ccccc1Nc1nc(N)nc(CSCC(=O)N2CCCCC2)n1 [Compound Z45354084] | 18
30 | Cc1ccc(S(=O)(=O)N2CCN(S(=O)(=O)c3ccc(C)c(C)c3)CC2)cc1C [Compound Z45415135] | -5

Second part, the compound after the results:

Row | First screening IR (inhibition rate) [%] | SMILES
31 | 1 | CC(=O)NC12CC3CC(C1)CC(C(=O)Oc1ccc(N(C)S(=O)(=O)c4cc(C)ccc4C)cc1)(C3)C2 [Compound Z29631809]
32 | 11 | Cc1cc(F)ccc1NC(=O)C(C)Oc1cccc(Cl)c1 (stereo not drawn) [Compound Z29827650]
33 | 6 | O=C(NCc1cccc(C(F)(F)F)c1)c1n[nH]c(=O)c2ccccc12 [Compound Z29859952]
34 | 1 | Cc1nn(-c2ccccc2)c2sc(C(=O)NCc3ccccn3)cc12 [Compound Z30166588]
35 | 14 | O=C(Nc1cccc(C(F)(F)F)c1)c1cccc(NC(=O)c2cnccn2)c1 [Compound Z30576843]
36 | -9 | COc1ccc(-c2cc(C(=O)OCc3ccccn3)c3ccccc3n2)cc1OC [Compound Z30610492]
37 | 4 | NC(=O)NCc1ccc(C(=O)N2CCN(c3ncc(C(F)(F)F)cc3Cl)CC2)cc1 [Compound Z30640594]
38 | 20 | C=CCN1C(=O)c2ccc(C(=O)Nc3cc(C)cc(C)c3)cc2C1=O [Compound Z30888972]
39 | 12 | CCOC(=O)c1c(NC(=O)CN2CCN(c3cccc(Cl)c3)CC2)sc(Cc2ccc3c(c2)OCO3)c1C [Compound Z30983122]
40 | 45 | Cc1sc2nc(CN3CCCC3)nc(N(C)CC(=O)Nc3ccc(N4CCOCC4)cc3)c2c1C [Compound Z31148700]
41 | -14 | CCCN1CCN(c2ccc(S(=O)(=O)NC3CCC(C)CC3)cc2[N+](=O)[O-])CC1 (stereo not drawn) [Compound Z31152357]
42 | 7 | COc1ccc(Cl)cc1NC(=O)CN(C)c1nc(CN2CCOCC2)nc2sc3c(c12)CCC(C)C3 (stereo not drawn) [Compound Z31158506]
43 | 8 | CN(Cc1ccccc1)c1nc(CN2CCOCC2)nc2sc3c(c12)CCC3 [Compound Z31196583]
44 | -3 | Cc1sc2nc(-c3cccnc3)nc(NC3CC3)c2c1C [Compound Z31232965]
45 | 19 | CCN(CCO)c1nc(-c2ccccn2)nc2scc(-c3ccccc3)c12 [Compound Z31238841]
46 | 4 | CC1CCc2c(sc3nc(-c4cccnc4)nc(N4CCCCCCC4)c23)C1 (stereo not drawn) [Compound Z31262492]
47 | -12 | CCOC(=O)c1ccc(-n2c(O)c(C=NCc3ccccn3)c3ccccc3c2=O)cc1 [Compound Z31275874]

Row | First screening IR (inhibition rate) [%] | SMILES
48 | -6 | CCOc1ccc(-n2c(O)c(C=NCCCN3CCOCC3)c3ccccc3c2=O)cc1 [Compound Z31276645]
49 | 8 | CC(C)(CNC(=O)c1cccc(N2CC(O)=C(c3nc4ccccc4s3)C2=N)c1)N1CCOCC1 [Compound Z32220177]
50 | 3 | Cc1noc(C)c1COc1ccc(C(=O)NCCCn2ccc3ccccc32)cc1 [Compound Z32811942]
51 | 4 | Cc1nc2ccc(NC(=O)CNC(=O)c3ccccc3F)cc2s1 [Compound Z33270206]
52 | 10 | COc1ccc(OC)c(-n2c(-c3ccc(C)cc3)nn(CN3CCN(c4ccc(O)cc4)CC3)c2=S)c1 [Compound Z44104256]
53 | 1 | COc1ccc2cc(C3(C)NC(=O)N(CN4CCN(C/C=C/c5ccccc5)CC4)C3=O)ccc2c1 (stereo not drawn) [Compound Z44124119]
54 | 18 | CC1CC(C)(C)CC2(C1)NC(=O)N(CN1CCN(c3ccc(C(F)(F)F)cn3)CC1)C2=O (stereo not drawn) [Compound Z44255985]
55 | 4 | COc1cc(/C=C2/C(=O)Nc3ccc(Cl)cc32)cc(Cl)c1OC(F)F [Compound Z44304760]
56 | 23 | CCOc1ccc(O)c(/C=C2\C(=O)Nc3ccc(Cl)cc32)c1 [Compound Z44304769]
57 | 25 | O=C1Nc2ccccc2/C1=C\c1ccc(O)cc1 [Compound Z44305789]
58 | 5 | Cc1ccccc1Nc1nc(N)nc(CN(C)Cc2ccc(C(C)(C)C)cc2)n1 [Compound Z44561353]
59 | 9 | Cn1c(O)c(N=NC(=O)c2ccc(COc3ccccc3-c3ccccc3)cc2)c2ccccc21 [Compound Z44853786]
60 | 6 | COc1ccc(CSCc2nc(N)nc(Nc3ccccc3C)n2)cc1F [Compound Z45342622]
61 | 12 | Cc1ccccc1Nc1nc(N)nc(CSc2ccc(C(F)(F)F)cn2)n1 [Compound Z45354574]
62 | 7 | O=[N+]([O-])c1ccc2nc(CSc3ccc(C(F)(F)F)cn3)[nH]c2c1 [Compound Z45358726]
63 | -2 | CCc1ccccc1Nc1nc(N)nc(CSCC(=O)c2cc(C)n(C)c2C)n1 [Compound Z45360560]
